Experimental data published in ChEMBL document CHEMBL1201862, “PubChem BioAssay data set” (2004).
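The compound was tested at five concentrations on cells cultured in 96-well plates, with a 48-hour exposure period. GI50 is the concentration that inhibits growth by half.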 Active and inactive are the calls of the source. Rule as the data show it: active = GI50 up to about 1.1 µM and inactive = higher.

Experiments:
Assay in all cases: NCI tumour cell line growth inhibition, 48 h
SR = tested on: SR
K562 = tested on: K562
MOLT-4 = tested on: MOLT-4
HCT-116 = tested on: HCT-116
BT-549 = tested on: BT-549
CAKI-1 = tested on: CAKI-1
MDA-MB-435 = tested on: MDA-MB-435
SNB-75 = tested on: SNB-75
U-251 = tested on: U-251
UACC-62 = tested on: UACC-62
OVCAR-4 = tested on: OVCAR-4
EKVX = tested on: EKVX
SF-539 = tested on: SF-539
UO-31 = tested on: UO-31
HOP-62 = tested on: HOP-62
Malme-3M = tested on: Malme-3M
HCC 2998 = tested on: HCC 2998
SK-OV-3 = tested on: SK-OV-3
OVCAR-8 = tested on: OVCAR-8
RXF 393 = tested on: RXF 393
HOP-92 = tested on: HOP-92
HT-29 = tested on: HT-29
OVCAR-5 = tested on: OVCAR-5
SNB-19 = tested on: SNB-19
TK-10 = tested on: TK-10
A549 = tested on: A549
SF-295 = tested on: SF-295
LOX IMVI = tested on: LOX IMVI
COLO 205 = tested on: COLO 205
SK-MEL-28 = tested on: SK-MEL-28
NCI-H226 = tested on: NCI-H226
HCT-15 = tested on: HCT-15
HL-60 = tested on: HL-60
MCF7 = tested on: MCF7
ACHN = tested on: ACHN
MDA-MB-231 = tested on: MDA-MB-231
Hs-578T = tested on: Hs-578T
786-0 = tested on: 786-0
DU-145 = tested on: DU-145
SW-620 = tested on: SW-620
M14 = tested on: M14
SF-268 = tested on: SF-268
MDA-N = tested on: MDA-N
NCI-H23 = tested on: NCI-H23
NCI/ADR-RES = tested on: NCI/ADR-RES
RPMI-8226 = tested on: RPMI-8226
OVCAR-3 = tested on: OVCAR-3
NCI-H522 = tested on: NCI-H522
SK-MEL-2 = tested on: SK-MEL-2
IGROV-1 = tested on: IGROV-1
SN12C = tested on: SN12C
SK-MEL-5 = tested on: SK-MEL-5
A498 = tested on: A498
CCRF-CEM = tested on: CCRF-CEM
NCI-H460 = tested on: NCI-H460
UACC-257 = tested on: UACC-257
T47D = tested on: T47D
PC-3 = tested on: PC-3
KM12 = tested on: KM12

With `COc1cc(OC)cc(-c2cc(=O)c3c(OC)c(OC)c(OC)c(OC)c3o2)c1` the GI50 (SR) was > 100 µM (inactive), the GI50 (K562) was 20.7 µM (inactive) and the GI50 (MOLT-4) was 18.3 µM (inactive). For the same molecule, the GI50 (HCT-116) was 31.3 µM (inactive), the GI50 (BT-549) was 41.1 µM (inactive) and the GI50 (CAKI-1) was > 100 µM (inactive). The GI50 (MDA-MB-435) was 32.8 µM (inactive), the GI50 (SNB-75) was 20 µM (inactive) and the GI50 (U-251) was 31.9 µM (inactive). The GI50 (UACC-62) was 31.9 µM (inactive), the GI50 (OVCAR-4) was 22.9 µM (inactive) and the GI50 (EKVX) was 29.2 µM (inactive). For the same molecule, the GI50 (SF-539) was 80 µM (inactive), the GI50 (UO-31) was 10.8 µM (inactive) and the GI50 (HOP-62) was 32.6 µM (inactive). The GI50 (Malme-3M) was 31.6 µM (inactive), the GI50 (HCC 2998) was 31.7 µM (inactive) and the GI50 (SK-OV-3) was 5.93 µM (inactive). The GI50 (OVCAR-8) was 33.6 µM (inactive), the GI50 (RXF 393) was 18.2 µM (inactive) and the GI50 (HOP-92) was 16.7 µM (inactive). For the same molecule, the GI50 (HT-29) was 28.7 µM (inactive), the GI50 (OVCAR-5) was 47.3 µM (inactive) and the GI50 (SNB-19) was 38.5 µM (inactive). The GI50 (TK-10) was 70.6 µM (inactive), the GI50 (A549) was 33.8 µM (inactive) and the GI50 (SF-295) was 23 µM (inactive). The GI50 (LOX IMVI) was 35.5 µM (inactive), the GI50 (COLO 205) was 16.3 µM (inactive) and the GI50 (SK-MEL-28) was 40.3 µM (inactive). The GI50 (NCI-H226) was 32.1 µM (inactive), the GI50 (HCT-15) was 33.3 µM and the GI50 (HL-60) was 7.26 µM (inactive). The GI50 (MCF7) was 63.7 µM (inactive), the GI50 (ACHN) was 27.2 µM (inactive) and the GI50 (MDA-MB-231) was 59.7 µM (inactive). The GI50 (Hs-578T) was 29.3 µM (inactive), the GI50 (786-0) was 29.9 µM (inactive) and the GI50 (DU-145) was 30.2 µM (inactive). For the same molecule, the GI50 (SW-620) was 35.7 µM (inactive), the GI50 (M14) was 37.2 µM (inactive) and the GI50 (SF-268) was 29.6 µM (inactive). For the same molecule, the GI50 (MDA-N) was 41.2 µM (inactive), the GI50 (NCI-H23) was 52.1 µM (inactive) and the GI50 (NCI/ADR-RES) was 29.8 µM (inactive). The GI50 (RPMI-8226) was 16.9 µM (inactive), the GI50 (OVCAR-3) was 18.8 µM (inactive) and the GI50 (NCI-H522) was 21.2 µM (inactive). For the same molecule, the GI50 (SK-MEL-2) was 18 µM (inactive), the GI50 (IGROV-1) was 32.2 µM (inactive) and the GI50 (SN12C) was 26.4 µM (inactive). The GI50 (SK-MEL-5) was 19.8 µM (inactive), the GI50 (A498) was 23 µM (inactive) and the GI50 (CCRF-CEM) was 20.5 µM (inactive). For the same molecule, the GI50 (NCI-H460) was 29 µM (inactive), the GI50 (UACC-257) was 39.2 µM (inactive) and the GI50 (T47D) was 20.9 µM (inactive).

In the case of `COc1ccc(/C=C(\C#N)c2nc(N)nc(N3N=C(C)CC3(C)C)n2)c(O)c1`, the GI50 (SR) was 16.9 µM (inactive), the GI50 (K562) was 21.3 µM (inactive) and the GI50 (PC-3) was 37.9 µM (inactive). The GI50 (MOLT-4) was 13.1 µM (inactive), the GI50 (HCT-116) was 17.6 µM (inactive) and the GI50 (BT-549) was 34 µM (inactive). The GI50 (CAKI-1) was 17.2 µM (inactive), the GI50 (MDA-MB-435) was 16.9 µM (inactive) and the GI50 (U-251) was 26.7 µM (inactive). The GI50 (UACC-62) was 17.4 µM (inactive), the GI50 (OVCAR-4) was 15.8 µM (inactive) and the GI50 (EKVX) was 20.5 µM (inactive). For the same molecule, the GI50 (SF-539) was 15.7 µM (inactive), the GI50 (UO-31) was 17.3 µM (inactive) and the GI50 (HOP-62) was 24.1 µM (inactive). For the same molecule, the GI50 (Malme-3M) was 14.4 µM (inactive), the GI50 (HCC 2998) was 19.2 µM (inactive) and the GI50 (SK-OV-3) was 26.9 µM (inactive). For the same molecule, the GI50 (OVCAR-8) was 32.7 µM (inactive), the GI50 (RXF 393) was 16.1 µM (inactive) and the GI50 (HOP-92) was 31.5 µM (inactive). The GI50 (HT-29) was 19.2 µM (inactive), the GI50 (OVCAR-5) was 15.3 µM (inactive) and the GI50 (SNB-19) was 35.1 µM (inactive). For the same molecule, the GI50 (TK-10) was 30.2 µM (inactive), the GI50 (A549) was 18.8 µM (inactive) and the GI50 (SF-295) was 19.1 µM (inactive). For the same molecule, the GI50 (COLO 205) was 17 µM (inactive), the GI50 (SK-MEL-28) was 14.5 µM (inactive) and the GI50 (NCI-H226) was 16.7 µM (inactive). The GI50 (HCT-15) was 17.7 µM, the GI50 (HL-60) was 16.5 µM (inactive) and the GI50 (MCF7) was 18.5 µM (inactive). The GI50 (ACHN) was 17.1 µM (inactive), the GI50 (MDA-MB-231) was 17.8 µM (inactive) and the GI50 (Hs-578T) was 18.3 µM (inactive). The GI50 (786-0) was 16.4 µM (inactive), the GI50 (DU-145) was 16.7 µM (inactive) and the GI50 (M14) was 20.3 µM (inactive). For the same molecule, the GI50 (KM12) was 15.6 µM (inactive), the GI50 (SF-268) was 17.2 µM (inactive) and the GI50 (NCI-H23) was 18.8 µM (inactive). The GI50 (NCI/ADR-RES) was 31 µM (inactive), the GI50 (RPMI-8226) was 41.3 µM (inactive) and the GI50 (OVCAR-3) was 15 µM (inactive). The GI50 (NCI-H522) was 21.7 µM (inactive), the GI50 (SK-MEL-2) was 20.7 µM (inactive) and the GI50 (IGROV-1) was 24 µM (inactive). The GI50 (SN12C) was 26.8 µM (inactive), the GI50 (SK-MEL-5) was 15.2 µM (inactive) and the GI50 (A498) was 28.4 µM (inactive). For the same molecule, the GI50 (CCRF-CEM) was 40.2 µM (inactive), the GI50 (NCI-H460) was 17.3 µM (inactive) and the GI50 (UACC-257) was 24 µM (inactive). For the same molecule, the GI50 (T47D) was 15.9 µM (inactive).
